Measured values published in patent US20150268248A1, “CELL SELECTIVE PROTEOME LABELING” (MEMORIAL SLOAN-KETTERING CANCER CENTER, priority 2012, published 2015).
Entries after “also recorded” stand apart in the source; their conditions may differ.

Experiments:
[1] = system: HEK 293T cells; test: Growth of wild-type cells on L-Lysine precursors (Resazurin/AlamarBlue); type: cell-based, human; settings: wild-type HEK 293T; medium without L-Lysine supplemented with high (mM-range) concentrations of precursor
Method: (§1) (a) Cells were seeded in 96 well format using at least 4 replicates per condition and cell proliferation was measured with the Resazurin (AlamarBlue) assay at the time indicated.
(§2) To investigate the candidate precursors and eliminate those that autonomously rescue L-Lysine auxotrophy, growth rates in SILAC media supplemented with L-Lysine, various precursors, or in L-Lysine-free conditions were examined.
(§3) Cell lines were grown in Dulbecco's modified Eagle's medium (DMEM) without L-Lysine and L-Arginine (SILAC-DMEM, Thermo Fisher Scientific) supplemented with 10% dialyzed FBS, antibiotics, and L-glutamine. […] Cell viability was measured using either the metabolic-activity based Resazurin (Sigma) reagent or the impedance-based xCELLigence system (Roche). For Resazurin experiments, 25 μL of the Resazurin reagent was added to each well and cellular growth was estimated after two to three hours of incubation at 37° C. as described by the manufacturer. For xCELLigence experiments, cells were plated in either 16 or 96-well E-plates, allowed to settle for 30 minutes at room temperature, and then placed in the RTCA DP or RTCA MP analyzer where impedance was measured every 15 minutes for 96-120 hours. At least three replicates were performed for each condition.

[2] = system: 3T3 cells; test: as above; type: cell-based, mouse; settings: wild-type 3T3; medium without L-Lysine supplemented with high (mM-range) concentrations of precursor
Method: as §1, §2, §3

[3] = system: CBZcleaver-expressing 3T3 cells; test: Growth on Z-Lysine (xCELLigence impedance); type: cell-based, mouse; settings: 2.5 mM Z-Lysine, L-Lysine-free
Method: FIG. 10 are graphs showing that 3T3 cells expressing the CBZcleaver enzyme grow on Z-Lysine and partially incorporate L-Lysine produced from Z-Lysine (CBZ-Lysine). (a) 3T3 cells stably trasfected with CBZcleaver (left panel) or empty control vector (right panel) were cultured in 0.798 mM L-Lysine, 2.5 mM Z-Lysine, or without either (blank). Cell growth was estimated by the impedance-based xCELLigence assay and data was normalized to maximum values for each cell-type. Error bars represent the standard deviation of three biological replicates. […] The labeling status was assessed by quantitative LC-MS/MS at the beginning of the experiment where the cells were labeled with medium L-Lysine (left, K4) and after 10 days in L-Lysine-free media with heavy labeled Z-Lysine (right, Z8). […]
as §3, with “For Resazurin experiments, 25 μL of the Resazurin reagent was added to each well and cellular growth was estimated after two to three hours of incubation at 37° C. as described by the manufacturer.” left out, “At least three replicates were performed for each condition.” left out

[4] = system: lyr-expressing MDA-MB-231 cells; test: Growth rescue on precursors in L-Lysine-free medium (xCELLigence impedance); type: cell-based, human; settings: 4 mM D-Lysine or 10 mM DAP, mono-culture
Method: (§4) Cell growth, assessed with impedance (a correlate of the number of cells) using the xCELLigence system, was normalized to maximum growth. Error bars represent the standard deviation of three biological replicates.
as §3

[5] = system: DDC-expressing HEK293T cells; test: as above; type: cell-based, human; settings: 10 mM DAP, mono-culture
Method: FIG. 9 are graphs showing that HEK293T cells expressing the L-Lysine biosynthesis enzyme diaminopimelate decarboxylase (DDC) specifically grow on meso-2,6-diaminopimelate (DAP). HEK293T cells stably transfected with DDC (left panel) or empty control vector (right panel) were cultured in 0.798 mM L-Lysine, 10 mM DAP, or neither (blank). Cell growth was estimated by the impedance-based xCelligence assay and data was normalized to the maximum value for each cell-type. Note that only HEK293T cells that express DDC grow on DAP. Error bars represent the standard deviation of three biological replicates.
The time to reach normal growth rates varied between cell-types from immediate to a short passaging/selection period.
as §3, with “For Resazurin experiments, 25 μL of the Resazurin reagent was added to each well and cellular growth was estimated after two to three hours of incubation at 37° C. as described by the manufacturer.” left out, “At least three replicates were performed for each condition.” left out

[6] = system: DDC-expressing 3T3 cells; test: as above; type: cell-based, mouse; settings: 10 mM DAP or 4 mM D-Lysine, mono-culture
Method: as §4, §3

[7] = system: MDA-MB-231 cells expressing truncated Lysine racemase (lyr); test: Growth on D-lysine of cells expressing truncated lyr; type: cell-based, human; settings: mono- and co-culture in vitro
Method: (§5) Cell lines were grown in Dulbecco's modified Eagle's medium (DMEM) without L-Lysine and L-Arginine (SILAC-DMEM, Thermo Fisher Scientific) supplemented with 10% dialyzed FBS, antibiotics, and L-glutamine. For mono-culture growth assays, 1 mM L-Arginine was added to the media and cells were seeded in 200 μL in 96-well plates with 4000 or 5000 cells per well in different concentrations of L-Lysine, meso-2,6-diaminopimelate (DAP, Sigma, 33240), D-Lysine HCL (Sigma, L5876), N-α-Cbz-L-Lysine (Z-Lysine, BaChem, C-2200), or N2-acetyl-L-Lysine (N2A, Sigma, A2010). Cell viability was measured using either the metabolic-activity based Resazurin (Sigma) reagent or the impedance-based xCELLigence system (Roche). For Resazurin experiments, 25 μL of the Resazurin reagent was added to each well and cellular growth was estimated after two to three hours of incubation at 37° C. as described by the manufacturer. For xCELLigence experiments, cells were plated in either 16 or 96-well E-plates, allowed to settle for 30 minutes at room temperature, and then placed in the RTCA DP or RTCA MP analyzer where impedance was measured every 15 minutes for 96-120 hours. At least three replicates were performed for each condition.

[8] = system: HEK293T cells expressing a truncated Lysine racemase (lyr); test: Growth on D-lysine of cells expressing truncated lyr (xCELLigence impedance); type: cell-based, human; settings: mono- and co-culture in vitro
Method: as §4
as §5, with “At least three replicates were performed for each condition.” left out

[9] = system: B16 cells expressing truncated Lysine racemase (lyr); test: Growth on D-lysine of cells expressing truncated lyr; type: cell-based, mouse; settings: mono- and co-culture in vitro
Method: CTAP can be quickly adaptable across many cell types without phenotypic or molecular disturbance. Cell lines that are suitable for use in practicing the method of the invention include, but are not limited to mouse fibroblast 3T3 cells, mouse melanoma, B16 cells, human embryonic kidney (HEK) cells, human mammary adenocarcinoma cells, […], etc.
as §5, with “For Resazurin experiments, 25 μL of the Resazurin reagent was added to each well and cellular growth was estimated after two to three hours of incubation at 37° C. as described by the manufacturer.” left out, “At least three replicates were performed for each condition.” left out

## CC(=O)N[C@@H](CCCCN)C(=O)O [N2A, N2-acetyl-L-Lysine]
[1]
  growth response: substantial growth response
[2]
  growth response: substantial growth response

## NCCCC[C@H](NC(=O)OCc1ccccc1)C(=O)O [Z-Lysine, N-α-Cbz-L-Lysine]
[1]
  growth response: no or limited growth response
[2]
  growth response: no or limited growth response
[3]
  growth on Z-Lysine: incomplete; also recorded: specific growth rescue

## N[C@H](CCC[C@H](N)C(=O)O)C(=O)O [DAP, meso-2,6-diaminopimelate]
[4]
  growth rate relative to media containing L-Lysine: no growth
[1]
  growth response: no or limited growth response
[5]
  growth rate relative to media containing L-Lysine: comparable
[2]
  growth response: no or limited growth response
[6]
  growth rate relative to media containing L-Lysine: comparable

## NCCCC[C@@H](N)C(=O)O [D-Lysine]
[4]
  growth rate relative to media containing L-Lysine: comparable
[1]
  growth response: no or limited growth response
[7]
  growth on D-lysine relative to growth on L-lysine: comparable
[8]
  growth on D-lysine relative to growth on L-lysine: comparable
[2]
  growth response: no or limited growth response
[9]
  growth on D-lysine relative to growth on L-lysine: comparable
[6]
  growth rate relative to media containing L-Lysine: no growth
